The target of assay [1] is KRAS G12D binding to BRAF (Homo sapiens (Human), UniProt P01116+P62937, G12D). The experiment in a line: KRAS-BRAF with CYPA (500 nM) interaction assay (TR-FRET), G12D. The settings on record: GMPPNP loaded 6His-KRAS, GST-BRAF RBD, 3 hours. How it is done: (§1) KRAS-BRAF with CYPA (500 nM) Interaction Assay
(§2) In this example, TR-FRET was also used to measure the compound or compound-CYPA dependent disruption of the KRAS G12C-BRAF complex. This protocol was also used to measure disruption of KRAS G12D or KRAS G12V binding to BRAF by a compound of the invention, respectively. In assay buffer containing 25 mM HEPES PH=7.4 (4-(2-hydroxyethyl)-1-piperazineethanesulfonic acid, Thermo, 15630080), 0.002% Tween20, 0.1% BSA, 100 mM NaCl, 5 mM MgCl2, 10 μM GMPPNP (Guanosine 5′-[β,γ-imido]triphosphate trisodium salt hydrate, Sigma, G0635), tagless CYPA, GMPPNP loaded 6His-KRAS proteins, and GST-BRAF^RBD were mixed in a well of a 384-well assay plate at final concentrations of 50 nM, 6.25 nM and 1 nM, respectively. Compound was present in plate wells as a 16-point 3-fold dilution series starting at a final concentration of 10 μM and incubated for 3 hours. A mixture of MAb Anti-6His-XL665 (Cisbio, 61HISXLB) and Mab anti-GST-TB cryptate (Cisbio, 61GSTTLB) was then added at a final concentration of 6.67 nM and 0.21 nM, respectively, and the plate was incubated for an additional 1.5 hours. TR-FRET signal was read on a PHERstar FSX microplate reader (Ex320 nm, Em 665/615 nm). Compounds that facilitate disruption of the KRAS-BRAF complex were identified as those eliciting a decrease in the TR-FRET ratio relative to DMSO control wells.
In general terms: In TR-FRET formats the signal depends on donor and acceptor labels being close together.

Assay [2] has as its system phosphorylation of ERK, KRAS G12V in SW620. As to the kind of experiment: pERK inhibition assay, KRAS G12V. The class given is cell-based. To be noted: Homo sapiens, SW-620; SW620 cells, 4 hours of incubation. As to the method:
(§3) This assay is to measure the ability of test compounds in inhibiting the phosphorylation of ERK, the downstream signaling of KRAS G12C in NCI-H358 cells, KRAS G12D in AGS cells, and KRAS G12V in SW620. NCI-H358 (ATCC-CRL5807) cells, AGS (ATCC-CRL-1739) cells, SW620 (ATCC-CCL-227) cells were all grown and maintained using RPMI-1640 medium (Thermo Fisher Scientific) with 10% fetal bovine serum and 1% penicillin/streptomycin. On the day prior to compound addition, cells were plated in tissue culture-treated 96 well plates (Corning-3699) at a density of 30,000 cell/well, 20,000 cell/well, 30,000 cell/well for NCI-H358, AGS and SW620 respectively, and allowed for attachment overnight. Diluted compounds were then added in a final concentration of 0.5% DMSO. After 4 hours of incubation, the medium was removed, 100 μL of 4% formaldehyde was added, and the assay plates were incubated at room temperature for 20 minutes. The plates were then washed once with phosphate buffered saline (PBS), and permeabilized with 100 μL of chilled methanol for 10 minutes. Non-specific antibody binding to the plates was blocked using 50 μL 1×BSA blocking buffer (Thermo-37520, 10-fold dilution by Phosphate-Buffered Saline Tween (PBST) for at least 1 hour at room temperature.
(§4) The amount of phosphor-ERK was determined using an antibody specific for phosphorylated form of ERK. Primary antibody (pERK, CST-4370, Cell Signaling Technology) was diluted 1:300 in blocking buffer, with 50 μL aliquoted to each well, and incubated overnight at 4° C. Cells was washed five times for 5 minutes with PBST. Secondary antibody (HRP-linked anti-rabbit IgG, CST-7074, Cell Signaling Technology) was diluted 1:1000 in blocking buffer, and 50 μL was added to each well and incubated 1-2 hrs at room temperature. Cells was washed 5 times for 5 minutes with PBST, 100 μL TMB ELISA substrate (abcam-ab171523) were added and gently shake for 20 minutes. 50 μL stop solution (abcam-ab171529) were added, and then read the signal (OD450) by EnVision.
(§5) IC50 was determined by fitting a 4-parameter sigmoidal concentration response model.

For assay [3], the target named is KRAS G12V binding to BRAF (Homo sapiens (Human), UniProt P01116+P62937, G12V). As to the kind of experiment: KRAS-BRAF with CYPA (500 nM) interaction assay (TR-FRET), G12V. To be noted: GMPPNP loaded 6His-KRAS, GST-BRAF RBD, 3 hours. How it is done: as §1, §2
Chain of KRAS G12V binding to BRAF (P01116-2 other isoform, or with tags, fused parts or gaps G12V): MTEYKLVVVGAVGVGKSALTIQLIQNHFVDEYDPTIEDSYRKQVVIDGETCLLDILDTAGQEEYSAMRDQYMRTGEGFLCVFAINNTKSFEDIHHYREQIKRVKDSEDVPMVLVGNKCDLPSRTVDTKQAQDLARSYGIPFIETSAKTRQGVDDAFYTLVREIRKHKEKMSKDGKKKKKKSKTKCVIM
Chain of KRAS G12V binding to BRAF (P62937 whole entry): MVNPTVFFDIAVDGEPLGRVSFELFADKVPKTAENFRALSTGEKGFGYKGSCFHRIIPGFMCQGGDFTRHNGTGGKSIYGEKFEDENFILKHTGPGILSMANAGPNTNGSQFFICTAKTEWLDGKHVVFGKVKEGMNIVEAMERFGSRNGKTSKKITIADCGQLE
The test system of another assay is SW620 cells. As to the kind of experiment: Cell viability assay (Cell Counting Kit-8), KRAS G12V. In kind it is cell-based. The settings on record: Homo sapiens, SW-620, 72 hrs incubation, CCK-8. As to the method:
(§6) The purpose of this cellular assay was to determine the effects of test compounds on the proliferation of human cancer cell lines NCI-H358 (ATCC-CRL5807) cells, AGS (ATCC-CRL-1739) cells, SW620 (ATCC-CCL-227) over a 3-day treatment period by quantifying the amount of NADPH present at endpoint using Cell Counting Kit-8.
(§7) Cells were seeded at 5,000 cells/well (NCI-H358), 2,000 cells/well (AGS) 2,000 cells/well (SW620) in 96-well assay plates (Corning-3699) and incubated overnight. On the day of the assay, diluted compounds were then added in a final concentration of 0.5% DMSO. After 72 hrs incubation, a tenth of the volume of cell counting kit 8 (Dnjindo-CK04) was added into each well. Read the signal (OD450 minus OD650) using EnVision after 2 hrs incubation. IC50 was determined by fitting a 4-parameter sigmoidal concentration response model.
For orientation: Tetrazolium dyes change colour on reduction, which living cells bring about.

The next assay relates to NCI-H358 cells. The experiment in a line: Cell viability assay (Cell Counting Kit-8), KRAS G12C. In kind it is cell-based. The settings on record: Homo sapiens, 72 hrs incubation, CCK-8. As to the method: as §6, §7
Assay [4] has as its system phosphorylation of ERK, KRAS G12D in AGS cells. As to the kind of experiment: pERK inhibition assay, KRAS G12D. In kind it is cell-based. The settings on record: Homo sapiens, 4 hours of incubation. How it is done:
as §3, §4, §5

The next assay addresses KRAS G12C-BRAF complex (Homo sapiens (Human), UniProt P01116+P62937, G12C). As to the kind of experiment: KRAS-BRAF with CYPA (500 nM) interaction assay (TR-FRET), G12C. In kind it is binding. To be noted: GMPPNP loaded 6His-KRAS, GST-BRAF RBD, 3 hours. How it is done:
as §1, §2

The next assay deals with AGS cells. As to the kind of experiment: Cell viability assay (Cell Counting Kit-8), KRAS G12D. The class given is cell-based. The settings on record: Homo sapiens, 72 hrs incubation, CCK-8. As to the method: as §6, §7
The test system of assay [5] is phosphorylation of ERK, KRAS G12C in NCI-H358 cells. As to the kind of experiment: pERK inhibition assay, KRAS G12C. The class given is cell-based. The settings on record: Homo sapiens, 4 hours of incubation. How it is done:
as §3, §4, §5

Molecules are shown by their SMILES.

Chain of KRAS G12C-BRAF complex (P01116-2 other isoform, or with tags, fused parts or gaps G12C): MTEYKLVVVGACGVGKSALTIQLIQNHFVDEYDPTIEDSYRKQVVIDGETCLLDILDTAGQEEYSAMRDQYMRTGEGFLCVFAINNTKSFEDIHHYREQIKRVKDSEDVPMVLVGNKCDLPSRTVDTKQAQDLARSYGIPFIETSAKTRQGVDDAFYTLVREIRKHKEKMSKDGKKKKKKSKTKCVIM
Chain of KRAS G12C-BRAF complex (P62937 whole entry): as the sequence (P62937 whole entry) above
Chain of KRAS G12D binding to BRAF (P01116-2 other isoform, or with tags, fused parts or gaps G12D): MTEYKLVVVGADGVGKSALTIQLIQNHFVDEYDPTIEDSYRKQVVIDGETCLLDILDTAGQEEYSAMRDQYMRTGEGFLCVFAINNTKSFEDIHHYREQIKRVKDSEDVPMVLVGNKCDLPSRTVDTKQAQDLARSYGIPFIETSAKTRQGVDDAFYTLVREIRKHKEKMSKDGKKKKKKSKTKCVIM
Chain of KRAS G12D binding to BRAF (P62937 whole entry): as the sequence (P62937 whole entry) above

For the molecule `CCn1c(-c2cc(N3CCN(C)CC3)cnc2[C@H](C)OC)c2c3cc(c(F)cc31)-c1csc(n1)C[C@H](NC(=O)[C@H]1C[C@@H]1C(F)F)C(=O)N1CCC[C@H](N1)C(=O)OCC(C)(C)C2` (atropisomer, axis not shown; (M)) [Example 3, (1S,2S)-2-(difluoromethyl)-N-[(7S,13S)-21-ethyl-24-fluoro-(20M)-20-[2-[(1S)-1-methoxyethyl]-5-(4-methylpiperazin-1-yl)-3-pyridyl]-17,17-dimethyl-8,14-dioxo-15-oxa-4-thia-9,21,27,28-tetrazapentacyclo[17.5.2.1^2,5.1^9,13.0^22,26]octacosa-1(25),2,5(28),19,22(26),23-hexaen-7-yl]cyclopropanecarboxamide], the IC50 was 1.72 µM in assay [1]; 0.005 µM in assay [2]; 0.243 µM in [3]; 0.008 µM with SW620 cells; 0.0116 µM in the assay with NCI-H358 cells; 0.029 µM in assay [4]. In addition, the 50% inhibitory concentration (IC50) on KRAS G12C-BRAF complex amounted to 0.196 µM; with AGS cells, 0.197 µM; in assay [5], 0.011 µM.
With `CO[C@@H](C)c1ncc(N2CCN(C)CC2)cc1-c1c2c3cc(c(F)cc3n1CC(F)(F)F)-c1csc(n1)C[C@H](NC(=O)[C@H]1C[C@@H]1C)C(=O)N1CCC[C@H](N1)C(=O)OCC(C)(C)C2` (atropisomer, axis not shown; (M)) [Example 4, (1S,2S)—N-[(7S,13S)-24-fluoro-(20M)-20-[2-[(1S)-1-methoxyethyl]-5-(4-methylpiperazin-1-yl)-3-pyridyl]-17,17-dimethyl-8,14-dioxo-21-(2,2,2-trifluoroethyl)-15-oxa-4-thia-9,21,27,28-tetrazapentacyclo[17.5.2.1^2,5.1^9,13.0^22,26]octacosa-1(25),2,5(28),19,22(26),23-hexaen-7-yl]-2-methyl-cyclopropanecarboxamide], the IC50 amounted to 0.544 µM in assay [1]; 0.007 µM in assay [2]; 0.095 µM in assay [3]; 0.013 µM in the assay with SW620 cells; 0.019 µM in the assay on NCI-H358 cells; 0.047 µM in assay [4]. The IC50 at KRAS G12C-BRAF complex came out at 0.036 µM; in the assay on AGS cells, 1.27 µM; in [5], 0.02 µM.
With `CCn1c(-c2cc(N3CCN(CC(F)(F)F)CC3)cnc2[C@H](C)OC)c2c3cc(c(F)cc31)-c1csc(n1)C[C@H](NC(=O)[C@H]1C[C@@H]1C)C(=O)N1CCC[C@H](N1)C(=O)OCC(C)(C)C2` (atropisomer, axis not shown; (M)) [Example 7, (1S,2S)—N-[(7S,13S)-21-ethyl-24-fluoro-(20M)-20-[2-[(1S)-1-methoxyethyl]-5-[4-(2,2,2-trifluoroethyl)piperazin-1-yl]-3-pyridyl]-17,17-dimethyl-8,14-dioxo-15-oxa-4-thia-9,21,27,28-tetrazapentacyclo[17.5.2.1^2,5.1^9,13.0^22,26]octacosa-1(25),2,5(28),19,22(26),23-hexaen-7-yl]-2-methyl-cyclopropanecarboxamide], the IC50 in [1] was > 10 µM; in assay [2] it was 0.02 µM; in assay [3], 0.697 µM; in the assay with SW620 cells, 0.027 µM; in the assay with NCI-H358 cells, 0.074 µM; in assay [4], 0.115 µM. In addition, the half-maximal inhibitory concentration (IC50) on KRAS G12C-BRAF complex was found to be 0.192 µM; in the assay on AGS cells, 0.389 µM; in assay [5], 0.071 µM.
For `CCn1c(-c2cc(N3CCOCC3)cnc2[C@H](C)OC)c2c3cc(c(F)cc31)-c1csc(n1)C[C@H](NC(=O)[C@H]1C[C@@H]1C)C(=O)N1CCC[C@H](N1)C(=O)OCC(C)(C)C2` (atropisomer, axis not shown; (M)) [Example 8, (1S,2S)—N-[(7S,13S)-21-ethyl-24-fluoro-(20M)-20-[2-[(1S)-1-methoxyethyl]-5-morpholino-3-pyridyl]-17,17-dimethyl-8,14-dioxo-15-oxa-4-thia-9,21,27,28-tetrazapentacyclo[17.5.2.1^2,5.1^9,13.0^22,26]octacosa-1(25),2,5(28),19,22(26),23-hexaen-7-yl]-2-methyl-cyclopropanecarboxamide], the IC50 came to 1.67 µM in assay [1]; 0.008 µM in [2]; 0.143 µM in assay [3]; 0.013 µM with SW620 cells; 0.016 µM in the assay on NCI-H358 cells; 0.056 µM in assay [4]. The figures for the IC50 (against KRAS G12C-BRAF complex; with AGS cells; in assay [5]) were 0.16 µM, 1.49 µM and 0.023 µM, respectively.
Regarding `CO[C@@H](C)c1ncc(N2CCN(CC(F)(F)F)CC2)cc1-c1c2c3cc(c(F)cc3n1CC(F)(F)F)-c1csc(n1)C[C@H](NC(=O)[C@H]1C[C@@H]1C)C(=O)N1CCC[C@H](N1)C(=O)OCC(C)(C)C2` (atropisomer, axis not shown; (M)) [Example 9, (1S,2S)—N-[(7S,13S)-24-fluoro-(20M)-20-[2-[(1S)-1-methoxyethyl]-5-[4-(2,2,2-trifluoroethyl)piperazin-1-yl]-3-pyridyl]-17,17-dimethyl-8,14-dioxo-21-(2,2,2-trifluoroethyl)-15-oxa-4-thia-9,21,27,28-tetrazapentacyclo[17.5.2.1^2,5.1^9,13.0^22,26]octacosa-1(25),2,5(28),19,22(26),23-hexaen-7-yl]-2-methyl-cyclopropanecarboxamide], the IC50 in assay [1] turned out to be 0.66 µM; in assay [2] it was 0.022 µM; in assay [3] it was 0.171 µM; in the assay on SW620 cells, 0.04 µM; in the assay on NCI-H358 cells it was 0.224 µM; in assay [4], 0.161 µM. Besides, the IC50 at KRAS G12C-BRAF complex was determined as 0.09 µM; in the assay on AGS cells it was 0.704 µM; in [5], 0.047 µM.

What is called IC50 is the concentration at which inhibition is half-maximal.
